Results taken from patent US12582625B2, “Methods for treating neuroblastoma” (priority 2015, dated 2026).
“And” between values parts separate entries of the source, which are not always exact repeats. Equal values may be shown once. “Also recorded” adds a separate entry of the source.

Tests used:
[1] = system: refractory or relapsed neuroblastoma; test: NMTRC 002: tumor response and progression free survival; format: in vivo, human; conditions: for PFS (days), individual patients: DFMO alone cycle 1, then with etoposide; for Status or Reason off study, individual patients: PF = progression free, PD = progressive disease
Description: Study Design and Treatment.
Tumor and clinical responses were monitored as secondary endpoints. Eighteen subjects were evaluated for efficacy. This study used the (RECIST) Response Evaluation Criteria measurements in Solid Tumor from the NCI (27) modified for pediatrics as well as MIBG or PET and bone marrow response. Tumor assessments/imaging studies were obtained at baseline>7 days from prior therapy and <21 days from the start of study therapy. These were repeated at the end of the first cycle and again after every other cycle.

[2] = toxicities related to DFMO alone
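Wherever ALT elevation, maximum Grade 2, patients (%) is given: Open-label multicenter phase I 3+3 dose escalation in patients aged 0-21 years with relapsed or refractory neuroblastoma, dosed twice daily.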
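Wherever ALT elevation, maximum Grade 3, patients (%) is given: Open-label multicenter phase I 3+3 dose escalation in patients aged 0-21 years with relapsed or refractory neuroblastoma, dosed twice daily.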
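Wherever dose-limiting toxicities (DLTs) or drug related serious adverse events (SAEs) is given: Open-label multicenter phase I 3+3 dose escalation in patients aged 0-21 years with relapsed or refractory neuroblastoma, dosed twice daily.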
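Wherever tolerability in pediatric patients is given: Open-label multicenter phase I 3+3 dose escalation in patients aged 0-21 years with relapsed or refractory neuroblastoma, dosed twice daily.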

NCCCC(N)(C(=O)O)C(F)F (stereo not shown) [DFMO, 2,5-diamino-2-(difluoromethyl) pentanoic acid]
dose-limiting toxicities (DLTs) or drug related serious adverse events (SAEs) (500-1500 mg/m^2 BID, all dose levels): No dose-limiting toxicities (DLTs) or drug related serious adverse events (SAEs) were observed | tolerability in pediatric patients (500-1500 mg/m^2 twice per day by mouth): well tolerated | ALT elevation, maximum Grade 2, patients (%) (Cycle 1 (N = 21)): 1 (5%) | ALT elevation, maximum Grade 3, patients (%) (Cycle 1 (N = 21)): 0 | ALT elevation, maximum Grade 4, patients (%) (Cycle 1 (N = 21)): 0 | ALT elevation, maximum Grade 5, patients (%) (Cycle 1 (N = 21)): 0 | AST elevation, maximum Grade 2, patients (%) (Cycle 1 (N = 21)): 0 | AST elevation, maximum Grade 3, patients (%) (Cycle 1 (N = 21)): 1 (5%) | AST elevation, maximum Grade 4, patients (%) (Cycle 1 (N = 21)): 0 | AST elevation, maximum Grade 5, patients (%) (Cycle 1 (N = 21)): 0 | Anemia, maximum Grade 2, patients (%) (Cycle 1 (N = 21)): 2 (10%) | Anemia, maximum Grade 3, patients (%) (Cycle 1 (N = 21)): 0 | Anemia, maximum Grade 4, patients (%) (Cycle 1 (N = 21)): 1 (5%) | Anemia, maximum Grade 5, patients (%) (Cycle 1 (N = 21)): 0 | Anorexia, maximum Grade 2, patients (%) (Cycle 1 (N = 21)): 0 | Anorexia, maximum Grade 3, patients (%) (Cycle 1 (N = 21)): 1 (5%) | Anorexia, maximum Grade 4, patients (%) (Cycle 1 (N = 21)): 0 | Anorexia, maximum Grade 5, patients (%) (Cycle 1 (N = 21)): 0 | Conjunctivitis, maximum Grade 2, patients (%) (Cycle 1 (N = 21)): 1 (5%) | Conjunctivitis, maximum Grade 3, patients (%) (Cycle 1 (N = 21)): 0 | Conjunctivitis, maximum Grade 4, patients (%) (Cycle 1 (N = 21)): 0 | Conjunctivitis, maximum Grade 5, patients (%) (Cycle 1 (N = 21)): 0 | Constipation, maximum Grade 2, patients (%) (Cycle 1 (N = 21)): 1 (5%) | Constipation, maximum Grade 3, patients (%) (Cycle 1 (N = 21)): 0 | Constipation, maximum Grade 4, patients (%) (Cycle 1 (N = 21)): 0 | Constipation, maximum Grade 5, patients (%) (Cycle 1 (N = 21)): 0 | Diarrhea, maximum Grade 2, patients (%) (Cycle 1 (N = 21)): 1 (5%) | Diarrhea, maximum Grade 3, patients (%) (Cycle 1 (N = 21)): 0 | Diarrhea, maximum Grade 4, patients (%) (Cycle 1 (N = 21)): 0 | Diarrhea, maximum Grade 5, patients (%) (Cycle 1 (N = 21)): 0 | GGT elevation, maximum Grade 2, patients (%) (Cycle 1 (N = 21)): 1 (5%) | GGT elevation, maximum Grade 3, patients (%) (Cycle 1 (N = 21)): 0 | GGT elevation, maximum Grade 4, patients (%) (Cycle 1 (N = 21)): 0 | GGT elevation, maximum Grade 5, patients (%) (Cycle 1 (N = 21)): 0 | Hypoalbumenia, maximum Grade 2, patients (%) (Cycle 1 (N = 21)): 1 (5%) | Hypoalbumenia, maximum Grade 3, patients (%) (Cycle 1 (N = 21)): 0 | Hypoalbumenia, maximum Grade 4, patients (%) (Cycle 1 (N = 21)): 0 | Hypoalbumenia, maximum Grade 5, patients (%) (Cycle 1 (N = 21)): 0 | Hypophosphatemia, maximum Grade 2, patients (%) (Cycle 1 (N = 21)): 1 (5%) | Hypophosphatemia, maximum Grade 3, patients (%) (Cycle 1 (N = 21)): 0 | Hypophosphatemia, maximum Grade 4, patients (%) (Cycle 1 (N = 21)): 0 | Hypophosphatemia, maximum Grade 5, patients (%) (Cycle 1 (N = 21)): 0 | Infection, sinus, maximum Grade 2, patients (%) (Cycle 1 (N = 21)): 0 | Infection, sinus, maximum Grade 3, patients (%) (Cycle 1 (N = 21)): 0 | Infection, sinus, maximum Grade 4, patients (%) (Cycle 1 (N = 21)): 0 | Infection, sinus, maximum Grade 5, patients (%) (Cycle 1 (N = 21)): 0 | Mouth pain, maximum Grade 2, patients (%) (Cycle 1 (N = 21)): 0 | Mouth pain, maximum Grade 3, patients (%) (Cycle 1 (N = 21)): 0 | Mouth pain, maximum Grade 4, patients (%) (Cycle 1 (N = 21)): 0 | Mouth pain, maximum Grade 5, patients (%) (Cycle 1 (N = 21)): 0 | Nausea, maximum Grade 2, patients (%) (Cycle 1 (N = 21)): 0 | Nausea, maximum Grade 3, patients (%) (Cycle 1 (N = 21)): 0 | Nausea, maximum Grade 4, patients (%) (Cycle 1 (N = 21)): 0 | Nausea, maximum Grade 5, patients (%) (Cycle 1 (N = 21)): 0 | Neuropathy, maximum Grade 2, patients (%) (Cycle 1 (N = 21)): 0 | Neuropathy, maximum Grade 3, patients (%) (Cycle 1 (N = 21)): 0 | Neuropathy, maximum Grade 4, patients (%) (Cycle 1 (N = 21)): 0 | Neuropathy, maximum Grade 5, patients (%) (Cycle 1 (N = 21)): 0 | Neutrophil count decrease, maximum Grade 2, patients (%) (Cycle 1 (N = 21)): 1 (5%) | Neutrophil count decrease, maximum Grade 3, patients (%) (Cycle 1 (N = 21)): 1 (5%) | Neutrophil count decrease, maximum Grade 4, patients (%) (Cycle 1 (N = 21)): 0 | Neutrophil count decrease, maximum Grade 5, patients (%) (Cycle 1 (N = 21)): 0 | Pain, maximum Grade 2, patients (%) (Cycle 1 (N = 21)): 0 | Pain, maximum Grade 3, patients (%) (Cycle 1 (N = 21)): 0 | Pain, maximum Grade 4, patients (%) (Cycle 1 (N = 21)): 0 | Pain, maximum Grade 5, patients (%) (Cycle 1 (N = 21)): 0 | Platelet count decrease, maximum Grade 2, patients (%) (Cycle 1 (N = 21)): 1 (5%) | Platelet count decrease, maximum Grade 3, patients (%) (Cycle 1 (N = 21)): 1 (5%) | Platelet count decrease, maximum Grade 4, patients (%) (Cycle 1 (N = 21)): 0 | Platelet count decrease, maximum Grade 5, patients (%) (Cycle 1 (N = 21)): 0 | Rash, maximum Grade 2, patients (%) (Cycle 1 (N = 21)): 0 | Rash, maximum Grade 3, patients (%) (Cycle 1 (N = 21)): 0 | Rash, maximum Grade 4, patients (%) (Cycle 1 (N = 21)): 0 | Rash, maximum Grade 5, patients (%) (Cycle 1 (N = 21)): 0 | Sleep disturbance, maximum Grade 2, patients (%) (Cycle 1 (N = 21)): 1 (5%) | Sleep disturbance, maximum Grade 3, patients (%) (Cycle 1 (N = 21)): 0 | Sleep disturbance, maximum Grade 4, patients (%) (Cycle 1 (N = 21)): 0 | Sleep disturbance, maximum Grade 5, patients (%) (Cycle 1 (N = 21)): 0 | Urinary retention, maximum Grade 2, patients (%) (Cycle 1 (N = 21)): 1 (5%) | Urinary retention, maximum Grade 3, patients (%) (Cycle 1 (N = 21)): 0 | Urinary retention, maximum Grade 4, patients (%) (Cycle 1 (N = 21)): 0 | Urinary retention, maximum Grade 5, patients (%) (Cycle 1 (N = 21)): 0 | Vomiting, maximum Grade 2, patients (%) (Cycle 1 (N = 21)): 1 (5%) | Vomiting, maximum Grade 3, patients (%) (Cycle 1 (N = 21)): 0 | Vomiting, maximum Grade 4, patients (%) (Cycle 1 (N = 21)): 0 | Vomiting, maximum Grade 5, patients (%) (Cycle 1 (N = 21)): 0 | White blood cell decreased, maximum Grade 2, patients (%) (Cycle 1 (N = 21)): 0 | White blood cell decreased, maximum Grade 3, patients (%) (Cycle 1 (N = 21)): 0 | White blood cell decreased, maximum Grade 4, patients (%) (Cycle 1 (N = 21)): 0 | White blood cell decreased, maximum Grade 5, patients (%) (Cycle 1 (N = 21)): 0 | ALT increase, N of subjects [2]: 1 | ANC decrease, N of subjects [2]: 2 | AST increase, N of subjects [2]: 1 | anemia, N of subjects [2]: 3 | anorexia, N of subjects [2]: 1 | constipation, N of subjects [2]: 1 | decreased platelet count, N of subjects [2]: 2 | diarrhea, N of subjects [2]: 1 | hypoalbuminemia, N of subjects [2]: 1 | hypophosphatemia, N of subjects [2]: 1 | increased GGT, N of subjects [2]: 1 | infection (conjunctivitis), N of subjects [2]: 1 | sleep disturbance, N of subjects [2]: 1 | urinary retention, N of subjects [2]: 1 | vomiting, N of subjects [2]: 1 | maximum tolerated dose (MTD) (up to 1500 mg/m^2 BID): not established | patients alive without progression of disease ([1]; 2-4.5 years after starting DFMO): three subjects remain alive without progression of disease; also recorded: Three patients remain alive without progression of disease | subjects with best response of progressive disease ([1]; 18 evaluable subjects): 5 | subjects with best response of stable disease by RECIST ([1]; 18 evaluable subjects): 12 | patients with best response of PR ([1]; 18 evaluable subjects, MIBG evaluable disease only): 1 | Best Response (CT/MIBG), individual patients ([1]; DFMO dose 500 mg/m^2 BID): SD/PR | PFS (days), individual patients ([1]; DFMO dose 500 mg/m^2 BID): 94 days and 1573 days and 1559 days | Status or Reason off study, individual patients ([1]; DFMO dose 500 mg/m^2 BID): Alive (PF) | PFS (days), individual patients ([1]; DFMO dose 750 mg/m^2 BID): 418 days and 103 days and 67 days and 57 days and 31 days | PFS (days), individual patients ([1]; DFMO dose 1000 mg/m^2 BID): 239 days and 64 days and 59 days | Best Response (CT/MIBG), individual patients ([1]; DFMO dose 1500 mg/m^2 BID): SD/PR; also recorded: (CT Neg)/PR | PFS (days), individual patients ([1]; DFMO dose 1500 mg/m^2 BID): 663 days and 209 days and 136 days and 62 days (3×) and 21 days | Status or Reason off study, individual patients ([1]; DFMO dose 1500 mg/m^2 BID): Alive (PF) and 2nd Leukemia | mean progression free survival (PFS) ([1]; NMTRC 002, all evaluable subjects): 420 days | PFS ([1]; ODC SNP rs2302615 genotype Any A): 282.1 ± 499.6 | PFS ([1]; ODC SNP rs2302615 genotype GG): 326.7 ± 501.6 | PFS ([1]; ODC SNP rs2302616 genotype Any T): 498.0 ± 635.4 | PFS ([1]; ODC SNP rs2302616 genotype GG): 110.8 ± 119.1 | median progression free survival (PFS) ([1]; all 18 evaluable subjects, 95% CI: 62-418 days (Saulnier Sholler et al., 2015)): 80.5 days | PFS ([1]; patients with GG at rs2302616): 110 days | PFS ([1]; patients with any minor T allele at rs2302616): 498 days | response by PET scans ([1]; three subjects evaluated by PET): two had a complete response and one a partial response
